In patent US8017602B2, “N-(2-(2-(5-hydroxy-3-oxo-3,4-dihydro-2H-benzo[b][1,4]oxazin-8-yl)ethylamino)ethyl)-3-(phenethoxy)propanamide derivatives, processes for their preparation, pharmaceutical compositions containing them and their use in therapy” (AstraZeneca AB, priority 2008, dated 2011):
Structures can show the parent of a compound that is named as a salt.

Experiments:
[1] = molecular target: T1, recombinant human α1D receptor (Homo sapiens, UniProt P25100); assay: Adrenergic α1D selectivity binding assay ([3H]-prazosin); conditions: inhibition of [3H]-prazosin binding, HEK293 membranes, read-out: α1 bind pIC50 (converted)
T1 construct: expressed in transfected cells; host or cells: HEK293
T1 sequence (P25100 1-572): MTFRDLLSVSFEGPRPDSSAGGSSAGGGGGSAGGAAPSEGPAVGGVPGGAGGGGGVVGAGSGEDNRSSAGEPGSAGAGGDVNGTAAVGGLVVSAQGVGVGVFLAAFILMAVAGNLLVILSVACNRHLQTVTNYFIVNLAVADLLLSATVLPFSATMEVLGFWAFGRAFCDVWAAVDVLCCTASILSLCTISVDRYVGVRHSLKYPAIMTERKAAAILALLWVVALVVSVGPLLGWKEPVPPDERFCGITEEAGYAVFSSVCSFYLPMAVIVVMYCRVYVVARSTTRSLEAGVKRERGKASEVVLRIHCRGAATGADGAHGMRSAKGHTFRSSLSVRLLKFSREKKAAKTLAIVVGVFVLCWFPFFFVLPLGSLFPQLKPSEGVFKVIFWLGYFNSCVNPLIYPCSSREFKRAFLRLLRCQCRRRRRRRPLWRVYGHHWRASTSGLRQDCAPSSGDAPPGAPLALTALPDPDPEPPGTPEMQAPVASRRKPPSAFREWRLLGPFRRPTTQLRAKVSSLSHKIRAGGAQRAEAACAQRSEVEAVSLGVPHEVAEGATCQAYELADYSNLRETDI
Protocol: Membranes were prepared from human embryonic kidney 293 (HEK293) cells expressing recombinant human α1D receptor. These were diluted in Assay Buffer (50 mM HEPES, 1 mM EDTA, pH 7.4) to provide a final concentration of membranes that gave a clear window between maximum and minimum specific binding.
(§1) Assays were performed in U-bottomed 96-well polypropylene plates. 10 μl [^3H]-prazosin (0.3 nM final concentration) and 10 μl of test compound (10× final concentration) were added to each test well. For each assay plate 8 replicates were obtained for [^3H]-prazosin binding in the presence of 10 μl vehicle (10% (v/v) DMSO in Assay Buffer; defining maximum binding) or 10 μL BMY7378 (10 μM final concentration; defining non-specific binding (NSB)). Membranes were then added to achieve a final volume of 100 μL. The plates were incubated for 2 h at room temperature and then filtered onto PEI coated GF/B filter plates, pre-soaked for 1 h in Assay Buffer, using a 96-well plate Tomtec cell harvester. Five washes with 250 μl wash buffer (50 mM HEPES, 1 mM EDTA, pH 7.4) were performed at 4° C. to remove unbound radioactivity. The plates were dried then sealed from underneath using Packard plate sealers and MicroScint-O (50 μl) was added to each well. The plates were sealed (TopSeal A) and filter-bound radioactivity was measured with a scintillation counter (TopCount, Packard BioScience) using a 3-minute counting protocol.
(§2) Total specific binding (B0) was determined by subtracting the mean NSB from the mean maximum binding. NSB values were also subtracted from values from all other wells. […] Data was fitted to a four parameter logistic equation to determine the compound potency, which was expressed as pIC50 (negative log molar concentration inducing 50% inhibition of [^3H]-prazosin binding).

[2] = molecular target: T2, recombinant human adrenergic beta 1 receptors (Homo sapiens, UniProt P08588); assay: Adrenergic β1 selectivity binding assay ([125I]-Iodocyanopindolol); conditions: inhibition of [125I]-Iodocyanopindolol binding, human β1 membranes; read-out: β1 bind p IC50 (converted)
T2 construct: purchased Euroscreen
Protocol: Membranes containing recombinant human adrenergic beta 1 receptors were obtained from Euroscreen. These were diluted in Assay Buffer (50 mM HEPES, 1 mM EDTA, 120 mM NaCl, 0.1% gelatin, pH 7.4) to provide a final concentration of membranes that gave a clear window between maximum and minimum specific binding.
as §1, with “plates. 10 μL [^125I]-Iodocyanopindolol (0.036 nM final” for “plates. 10 μl [^3H]-prazosin (0.3 nM final”, “and 10 μL of test” for “and 10 μl of test”, “obtained for [^125I]-Iodocyanopindolol binding in” for “obtained for [^3H]-prazosin binding in”, “or 10 μl Propranolol (10 μM” for “or 10 μL BMY7378 (10 μM”, “with 250 μL wash buffer” for “with 250 μl wash buffer”, “mM EDTA, 120 mM NaCl, pH 7.4)” for “mM EDTA, pH 7.4)”
as §2, with “[^125I]-Iodocyanopindolol” for “[^3H]-prazosin”

T2 sequence (P08588 whole entry): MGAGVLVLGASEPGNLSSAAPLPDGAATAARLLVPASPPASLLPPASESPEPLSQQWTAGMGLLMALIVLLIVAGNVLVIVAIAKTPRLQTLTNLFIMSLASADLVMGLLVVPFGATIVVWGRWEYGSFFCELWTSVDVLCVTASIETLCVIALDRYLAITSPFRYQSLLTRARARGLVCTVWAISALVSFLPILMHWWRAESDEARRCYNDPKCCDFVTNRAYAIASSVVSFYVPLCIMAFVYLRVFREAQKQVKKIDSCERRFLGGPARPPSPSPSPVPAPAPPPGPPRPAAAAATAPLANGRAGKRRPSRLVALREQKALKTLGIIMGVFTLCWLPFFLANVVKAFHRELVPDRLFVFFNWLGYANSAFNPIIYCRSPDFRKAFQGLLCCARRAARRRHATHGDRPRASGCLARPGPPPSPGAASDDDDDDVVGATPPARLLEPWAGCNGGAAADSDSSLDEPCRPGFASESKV

IC50 [1] [µM]	IC50 [2] [µM]	Structure (SMILES)
1.58	> 10	CC(C)n1cc(-c2cccc(CCOCCC(=O)N(CCNCCc3ccc(O)c4c3OCC(=O)N4)C3CCCCC3)c2)nn1 [Example 12, N-Cyclohexyl-N-(2-(2-(5-hydroxy-3-oxo-3,4-dihydro-2H-benzo[b][1,4]oxazin-8-yl)ethylamino)ethyl)-3-(3-(1-isopropyl-1H-1,2,3-triazol-4-yl)phenethoxy)propanamide Trifluoroacetic Acid Salt]
1	> 10	Cn1nnc(-c2cccc(CCOCCC(=O)N(CCNCCc3ccc(O)c4c3OCC(=O)N4)C3CCCCC3)c2)n1 [Example 07, N-Cyclohexyl-N-(2-(2-(5-hydroxy-3-oxo-3,4-dihydro-2H-benzo[b][1,4]oxazin-8-yl)ethylamino)ethyl)-3-(3-(2-methyl-2H-tetrazol-5-yl)phenethoxy)propanamide Trifluoroacetic Acid Salt]
2	> 10	Cn1nccc1-c1cccc(CCOCCC(=O)N(CCNCCc2ccc(O)c3c2OCC(=O)N3)C2CCCCC2)c1 [Example 03, N-Cyclohexyl-N-(2-(2-(5-hydroxy-3-oxo-3,4-dihydro-2H-benzo[b][1,4]oxazin-8-yl)ethylamino)ethyl)-3-(3-(1-methyl-1H-pyrazol-5-yl)phenethoxy)propanamide Trifluoroacetic Acid Salt]
1	> 10	Cc1c(-c2cccc(CCOCCC(=O)N(CCNCCc3ccc(O)c4c3OCC(=O)N4)C3CCCCC3)c2)cnn1C [Example 37, N-Cyclohexyl-3-(3-(1,5-dimethyl-1H-pyrazol-4-yl)phenethoxy)-N-(2-(2-(5-hydroxy-3-oxo-3,4-dihydro-2H-benzo[b][1,4]oxazin-8-yl)ethylamino)ethyl)propanamide Trifluoroacetic Acid Salt]
2	> 10	Cc1nc(-c2cccc(CCOCCC(=O)N(CCNCCc3ccc(O)c4c3OCC(=O)N4)C3CCCCC3)c2)cn1C [Example 35, N-Cyclohexyl-3-(3-(1,2-dimethyl-1H-imidazol-4-yl)phenethoxy)-N-(2-(2-(5-hydroxy-3-oxo-3,4-dihydro-2H-benzo[b][1,4]oxazin-8-yl)ethylamino)ethyl)propanamide Trifluoroacetic Acid Salt]
1.26	5.01	CCn1cc(-c2cccc(CCOCCC(=O)N(CCNCCc3ccc(O)c4c3OCC(=O)N4)C3CCCC3)c2)cn1 [Example 24, N-Cyclopentyl-3-(3-(1-ethyl-1H-pyrazol-4-yl)phenethoxy)-N-(2-(2-(5-hydroxy-3-oxo-3,4-dihydro-2H-benzo[b][1,4]oxazin-8-yl)ethylamino)ethyl)propanamide Trifluoroacetic Acid Salt]
1.58	> 7.94	CCn1ccnc1-c1cccc(CCOCCC(=O)N(CCNCCc2ccc(O)c3c2OCC(=O)N3)C2CCCCC2)c1 [Example 29, N-Cyclohexyl-3-(3-(1-ethyl-1H-imidazol-2-yl)phenethoxy)-N-(2-(2-(5-hydroxy-3-oxo-3,4-dihydro-2H-benzo[b][1,4]oxazin-8-yl)ethylamino)ethyl)propanamide Trifluoroacetic Acid Salt]
0.316	> 10	CCn1cc(-c2cccc(CCOCCC(=O)N(CCNCCc3ccc(O)c4c3OCC(=O)N4)[C@H](C)C(C)(C)C)c2)cn1 [Example 25, (R)—N-(3,3-Dimethylbutan-2-yl)-3-(3-(1-ethyl-1H-pyrazol-4-yl)phenethoxy)-N-(2-(2-(5-hydroxy-3-oxo-3,4-dihydro-2H-benzo[b][1,4]oxazin-8-yl)ethylamino)ethyl)propanamide Trifluoroacetic Acid Salt]
0.316	6.31	O=C1COc2c(CCNCCN(C(=O)CCOCCc3cccc(-c4cnco4)c3)C3CCCCC3)ccc(O)c2N1 [Example 10, N-Cyclohexyl-N-(2-(2-(5-hydroxy-3-oxo-3,4-dihydro-2H-benzo[b][1,4]oxazin-8-yl)ethylamino)ethyl)-3-(3-(oxazol-5-yl)phenethoxy)propanamide Trifluoroacetic Acid Salt]
0.631	5.01	Cc1nc(-c2cccc(CCOCCC(=O)N(CCNCCc3ccc(O)c4c3OCC(=O)N4)C3CCCCC3)c2)[nH]c1C [Example 32, N-Cyclohexyl-3-(3-(4,5-dimethyl-1H-imidazol-2-yl)phenethoxy)-N-(2-(2-(5-hydroxy-3-oxo-3,4-dihydro-2H-benzo[b][1,4]oxazin-8-yl)ethylamino)ethyl)propanamide]
0.501	> 10	C[C@@H](N(CCNCCc1ccc(O)c2c1OCC(=O)N2)C(=O)CCOCCc1cccc(-c2cnn(C)c2)c1)C(C)(C)C [Example 26, (R)—N-(3,3-Dimethylbutan-2-yl)-N-(2-(2-(5-hydroxy-3-oxo-3,4-dihydro-2H-benzo[b][1,4]oxazin-8-yl)ethylamino)ethyl)-3-(3-(1-methyl-1H-pyrazol-4-yl)phenethoxy)propanamide Trifluoroacetic Acid Salt]
2.51	> 10	COCCn1cc(-c2cccc(CCOCCC(=O)N(CCNCCc3ccc(O)c4c3OCC(=O)N4)C3CCCCC3)c2)cn1 [Example 36, N-Cyclohexyl-N-(2-(2-(5-hydroxy-3-oxo-3,4-dihydro-2H-benzo[b][1,4]oxazin-8-yl)ethylamino)ethyl)-3-(3-(1-(2-methoxyethyl)-1H-pyrazol-4-yl)phenethoxy)propanamide Trifluoroacetic Acid Salt]
0.501	6.31	Cn1cc(-c2cccc(CCOCCC(=O)N(CCNCCc3ccc(O)c4c3OCC(=O)N4)C3CCCCC3)c2F)cn1 [Example 16, N-Cyclohexyl-3-(2-fluoro-3-(1-methyl-1H-pyrazol-4-yl)phenethoxy)-N-(2-(2-(5-hydroxy-3-oxo-3,4-dihydro-2H-benzo[b][1,4]oxazin-8-yl)ethylamino)ethyl)propanamide Trifluoroacetic Acid Salt]
1	> 10	O=C1COc2c(CCNCCN(C(=O)CCOCCc3cccc(-c4c[nH]nn4)c3)C3CCCCC3)ccc(O)c2N1 [Example 14, 3-(3-(1H-1,2,3-Triazol-4-yl)phenethoxy)-N-cyclohexyl-N-(2-(2-(5-hydroxy-3-oxo-3,4-dihydro-2H-benzo[b][1,4]oxazin-8-yl)ethylamino)ethyl)propanamide Trifluoroacetic Acid Salt]
2	> 10	Cn1ccnc1-c1cccc(CCOCCC(=O)N(CCNCCc2ccc(O)c3c2OCC(=O)N3)C2CCCCC2)c1 [Example 33, N-Cyclohexyl-N-(2-(2-(5-hydroxy-3-oxo-3,4-dihydro-2H-benzo[b][1,4]oxazin-8-yl)ethylamino)ethyl)-3-(3-(1-methyl-1H-imidazol-2-yl)phenethoxy)propanamide]
